# Laboratory results as given in ChEMBL document CHEMBL1201862, “PubChem BioAssay data set” (2004).
# Where a name gives a salt, the structure may show the parent alone. Activity calls are given as the source filed them.
# What was measured:
# [1] = molecular target: T1, Beta-adrenergic receptor kinase 1 (Homo sapiens, UniProt P25098); assay: aptamer displacement from bead-bound GRK2 – biochemical, cherry pick 1, bead flow cytometry, dose response (AID 504500)
# [2] = molecular target: T2, Apoptotic protease-activating factor 1 (Homo sapiens, UniProt O14727); assay: activation of Apaf-1 mediated apoptosis – fluorescent, uHTS hits, dose response (AID 588554); format: functional
# T2 sequence (O14727 whole entry): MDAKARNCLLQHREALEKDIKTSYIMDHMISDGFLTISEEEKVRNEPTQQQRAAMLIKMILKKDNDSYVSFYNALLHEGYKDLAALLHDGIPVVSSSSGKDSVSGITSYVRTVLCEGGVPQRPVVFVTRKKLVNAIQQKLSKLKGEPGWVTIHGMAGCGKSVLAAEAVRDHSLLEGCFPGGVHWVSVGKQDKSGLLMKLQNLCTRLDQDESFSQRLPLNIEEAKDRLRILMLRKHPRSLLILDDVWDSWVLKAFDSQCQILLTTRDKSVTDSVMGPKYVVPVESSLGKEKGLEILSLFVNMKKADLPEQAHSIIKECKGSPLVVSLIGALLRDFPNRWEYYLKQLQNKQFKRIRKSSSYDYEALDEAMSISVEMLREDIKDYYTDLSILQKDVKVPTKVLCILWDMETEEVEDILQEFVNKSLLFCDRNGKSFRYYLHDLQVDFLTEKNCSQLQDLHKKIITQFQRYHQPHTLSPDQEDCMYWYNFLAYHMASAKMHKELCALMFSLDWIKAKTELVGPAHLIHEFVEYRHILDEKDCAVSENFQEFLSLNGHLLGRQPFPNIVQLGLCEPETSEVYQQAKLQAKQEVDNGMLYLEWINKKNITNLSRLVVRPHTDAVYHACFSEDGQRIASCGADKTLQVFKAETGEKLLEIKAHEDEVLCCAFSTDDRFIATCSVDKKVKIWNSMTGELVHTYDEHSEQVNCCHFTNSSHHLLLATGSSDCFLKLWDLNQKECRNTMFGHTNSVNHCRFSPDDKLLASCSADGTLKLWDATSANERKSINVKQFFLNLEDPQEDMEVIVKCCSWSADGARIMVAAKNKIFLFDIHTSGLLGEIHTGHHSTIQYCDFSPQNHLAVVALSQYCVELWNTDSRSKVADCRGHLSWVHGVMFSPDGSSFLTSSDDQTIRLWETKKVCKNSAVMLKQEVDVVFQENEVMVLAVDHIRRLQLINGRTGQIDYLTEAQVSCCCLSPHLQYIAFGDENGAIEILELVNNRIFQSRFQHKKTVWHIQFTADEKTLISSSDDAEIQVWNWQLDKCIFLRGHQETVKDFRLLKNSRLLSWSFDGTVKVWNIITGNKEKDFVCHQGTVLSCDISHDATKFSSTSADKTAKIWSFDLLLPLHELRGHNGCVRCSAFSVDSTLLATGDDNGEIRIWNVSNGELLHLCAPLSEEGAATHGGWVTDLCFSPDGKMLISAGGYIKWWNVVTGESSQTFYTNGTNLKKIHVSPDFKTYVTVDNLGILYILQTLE
# [3] = molecular target: T1, Beta-adrenergic receptor kinase 1; assay: blockers of aptamer binding to GRK2 – biochemical, flow cytometry beads, FAM-aptamer, powder set 1, dose response (AID 588720)
# [4] = molecular target: T3, Carboxy-terminal domain RNA polymerase II polypeptide A small phosphatase 1 (Homo sapiens, UniProt Q9GZU7); assay: CTDSP1 inhibitors, concentration-response, biochemical, absorbance readout, ultra-high-throughput screen actives (AID 540297); format: functional
# T3 sequence (Q9GZU7 whole entry): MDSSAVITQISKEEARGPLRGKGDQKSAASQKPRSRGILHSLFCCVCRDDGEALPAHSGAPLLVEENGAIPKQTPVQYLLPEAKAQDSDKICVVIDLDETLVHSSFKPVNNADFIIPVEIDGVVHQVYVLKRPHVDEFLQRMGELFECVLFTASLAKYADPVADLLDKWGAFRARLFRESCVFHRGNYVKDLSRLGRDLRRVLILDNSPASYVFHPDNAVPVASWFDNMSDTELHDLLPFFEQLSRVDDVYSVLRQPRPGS
# [5] = molecular target: Protein S100-A4 (Homo sapiens, UniProt P26447); assay: human S100A4 peptide interaction inhibition curves – biochemical, fluorescence polarization, cherry-picked hits, dose response (AID 687001); format: functional
# Sequence of Protein S100-A4 (P26447 whole entry): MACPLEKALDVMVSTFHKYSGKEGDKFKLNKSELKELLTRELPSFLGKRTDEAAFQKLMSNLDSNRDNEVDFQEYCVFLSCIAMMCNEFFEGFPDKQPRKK
# [6] = molecular target: T4, Caspase-6 (Homo sapiens, UniProt P55212); assay: inhibition of CASP6 peptide cleavage – biochemical, VEID-R110 fluorescence, cherry-pick, dose response (AID 720632)
# T4 sequence (P55212 whole entry): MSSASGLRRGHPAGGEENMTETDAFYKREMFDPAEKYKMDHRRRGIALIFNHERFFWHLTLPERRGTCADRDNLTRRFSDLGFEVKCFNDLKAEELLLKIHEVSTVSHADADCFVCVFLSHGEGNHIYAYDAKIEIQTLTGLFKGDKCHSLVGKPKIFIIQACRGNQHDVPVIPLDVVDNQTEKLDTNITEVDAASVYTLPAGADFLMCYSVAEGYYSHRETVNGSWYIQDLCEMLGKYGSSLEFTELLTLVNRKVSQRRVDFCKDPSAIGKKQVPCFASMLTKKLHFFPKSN
# [7] = molecular target: Caspase-7 (Homo sapiens, UniProt P55210); assay: caspase-7 enzyme inhibition, selectivity check – biochemical, DEVD-R110 fluorescence, cherry-pick, selectivity assay for caspase-6 inhibitor project, dose response (AID 743295); format: functional
# Sequence of Caspase-7 (P55210 24-198 limits assumed): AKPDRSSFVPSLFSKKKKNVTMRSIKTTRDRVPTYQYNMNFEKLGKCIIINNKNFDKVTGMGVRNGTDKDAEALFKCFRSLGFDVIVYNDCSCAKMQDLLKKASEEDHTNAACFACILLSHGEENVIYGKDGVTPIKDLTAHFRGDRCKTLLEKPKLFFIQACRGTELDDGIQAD
# Sequence of Caspase-7 (P55210 207-303 limits assumed): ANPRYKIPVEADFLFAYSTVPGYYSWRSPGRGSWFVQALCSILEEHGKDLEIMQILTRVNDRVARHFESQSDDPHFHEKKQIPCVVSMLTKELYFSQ
# [8] = molecular target: Peroxisome proliferator-activated receptor gamma/Nuclear receptor corepressor 2 (Homo sapiens, UniProt P37231+Q9Y618); assay: Counterscreen for NR2E3 inverse agonists: TR-FRET-based biochemical high throughput dose response assay to identify inverse agonists of the interaction between peroxisome proliferator-activated receptor gamma (PPARg) and nuclear receptor co-repressor 2 (NCOR2).; format: functional
# [9] = molecular target: Photoreceptor-specific nuclear receptor (Homo sapiens, UniProt Q9Y5X4); assay: ligands suppressing NR2E3 nuclear receptor activity – biochemical, TR-FRET, dose response (AID 463256); format: functional
# Sequence of Photoreceptor-specific nuclear receptor (Q9Y5X4 whole entry): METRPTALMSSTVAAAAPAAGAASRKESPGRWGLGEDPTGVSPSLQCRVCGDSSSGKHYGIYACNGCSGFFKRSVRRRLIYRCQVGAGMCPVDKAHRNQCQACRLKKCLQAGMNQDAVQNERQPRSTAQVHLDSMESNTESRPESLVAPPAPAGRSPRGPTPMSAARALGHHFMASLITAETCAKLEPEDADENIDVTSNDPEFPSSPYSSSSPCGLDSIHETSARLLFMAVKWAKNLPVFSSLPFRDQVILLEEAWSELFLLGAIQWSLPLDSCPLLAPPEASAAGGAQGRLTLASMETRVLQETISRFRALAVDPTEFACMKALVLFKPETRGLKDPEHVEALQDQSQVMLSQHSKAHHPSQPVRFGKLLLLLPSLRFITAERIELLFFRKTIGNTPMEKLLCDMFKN
# [10] = molecular target: T5, Endoribonuclease toxin MazF (Escherichia coli K-12, UniProt P0AE70); assay: activation of MazEF endoribonuclease cleavage – biochemical, fluorescence, single-stranded RNA substrate, uHTS hits, dose response (AID 588481); format: functional
# T5 sequence (P0AE70 whole entry): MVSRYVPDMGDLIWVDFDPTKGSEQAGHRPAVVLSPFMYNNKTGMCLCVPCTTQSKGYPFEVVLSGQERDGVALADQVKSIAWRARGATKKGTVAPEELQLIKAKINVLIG
# [11] = molecular target: T5, Endoribonuclease toxin MazF; assay: substrate-only fluorescence increase artefacts – biochemical, single-stranded RNase substrate, counter-screen for MazEF activator project, dose response (AID 588502); format: functional
# [12] = system: HEK293; assay: EBV LMP1 TES2 canonical NF-kB signalling blockers – cell-based, HEK293, luciferase, cherry-pick, dose response (AID 588343); format: functional; conditions: Homo sapiens
# [13] = reduction of Shn3 3'UTR-driven luciferase in osteoblasts – cell-based, Clone20 osteoblasts, firefly luciferase, cherry-picked, dose response (AID 624132); format: functional;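 also: firefly luciferase luminescence from reporter carrying the Shn3 3'UTR in osteoblasts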
# [14] = loss of viability in HepG2 cells – cell-based, CellTiter-Glo, cherry-picked, cytotoxicity control for Shn3 inhibitor project, dose response (AID 624134); format: functional
# [15] = non-specific 3'UTR reporter inhibition in Clone20-Shn3RL – cell-based, Renilla luciferase, cherry-picked, counter-screen for Shn3 inhibitor project, dose response (AID 624133); format: functional
# [16] = Lymphoblastoid Cells (LCL) Cytotoxicity Secondary Assay Measured in Cell-Based System Using Plate Reader - 2122-03_Inhibitor_Dose_CherryPick_Activity_Set2. [Related pubchem assays (depositor defined):AID504586]
# [17] = luciferase reporter signal suppression in cells – H4 neuroglioma cells, luminescence, dose response (AID 1990); format: functional, cell-based
# [18] = system: BJ; assay: BJ-TERT fibroblast viability loss – cell-based, RAS-independent, luminescence, dose response (AID 1933); format: functional; conditions: Homo sapiens
# [19] = Luminescence Cell-Based Dose Response HTS to Identify Inhibitors of 5'UTR Stem-Loop Driven Prion Protein mRNA Translation in H4 Neuroglioblastoma Cells. [Related pubchem assays: 1827 (Project Summary), 1813 (Primary HTS)]; format: functional
# [20] = alpha-synuclein stem-loop luciferase translation blockers – H4 neuroglioma cells, luminescence, confirmation (AID 1988); format: functional, cell-based
# [21] = system: BJ; assay: cells; format: functional, cell-based; conditions: Homo sapiens
# [22] = system: BJ; assay: BJ-TERT-LT-ST fibroblast viability loss – cell-based, RAS-independent, luminescence, dose response (AID 1935); format: functional; conditions: Homo sapiens;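 also: BJ fibroblasts immortalized with TERT plus LT and ST oncogenes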
# [23] = DRD fibroblast viability loss – cell-based, non-viral oncogenic, luminescence, dose response (AID 1934); format: functional; conditions: Homo sapiens
# [24] = molecular target: C-C chemokine receptor type 6 (Homo sapiens, UniProt P51684); assay: antagonism of CCR6 beta-arrestin recruitment – cell-based, luminescent beta-arrestin readout, dose response (AID 504728); format: functional
# Sequence of C-C chemokine receptor type 6 (P51684 whole entry): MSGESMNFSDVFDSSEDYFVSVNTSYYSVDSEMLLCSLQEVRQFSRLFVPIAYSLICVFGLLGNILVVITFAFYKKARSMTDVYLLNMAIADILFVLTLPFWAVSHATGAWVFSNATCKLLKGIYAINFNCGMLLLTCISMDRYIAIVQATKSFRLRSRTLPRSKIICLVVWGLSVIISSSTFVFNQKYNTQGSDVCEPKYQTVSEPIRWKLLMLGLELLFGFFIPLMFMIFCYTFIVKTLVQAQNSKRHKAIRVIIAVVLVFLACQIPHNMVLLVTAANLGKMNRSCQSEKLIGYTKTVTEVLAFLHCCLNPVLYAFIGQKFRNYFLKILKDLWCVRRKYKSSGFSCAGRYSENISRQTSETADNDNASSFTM
# [25] = molecular target: T6, Bcl-2-related protein A1 (Mus musculus, UniProt Q07440); format: functional;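 also: confirmatory dose–response counterscreen on Bfl-1, used to check hits from a UBC13 polyubiquitin inhibitor campaign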
# T6 sequence (Q07440 whole entry): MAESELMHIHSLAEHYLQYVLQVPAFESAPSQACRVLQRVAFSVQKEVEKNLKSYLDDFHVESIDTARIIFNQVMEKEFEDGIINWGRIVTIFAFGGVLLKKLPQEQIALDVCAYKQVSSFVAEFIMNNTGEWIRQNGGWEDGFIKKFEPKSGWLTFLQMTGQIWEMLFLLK
# [26] = molecular target: T7, Ubiquitin-conjugating enzyme E2 N (Homo sapiens, UniProt P61088); format: functional
# T7 sequence (P61088 whole entry): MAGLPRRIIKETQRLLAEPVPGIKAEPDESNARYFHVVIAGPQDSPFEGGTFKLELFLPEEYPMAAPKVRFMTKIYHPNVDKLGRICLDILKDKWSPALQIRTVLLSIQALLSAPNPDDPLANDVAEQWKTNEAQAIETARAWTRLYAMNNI
# [27] = molecular target: Beta-galactosidase (Escherichia coli, UniProt Q8VNN2); assay: detection-enzyme interference by beta-gal modulators – biochemical, E. coli enzyme, set 3, artefact control for CCR6 antagonist project, dose response (AID 504712); format: functional
# Sequence of Beta-galactosidase (Q8VNN2 whole entry): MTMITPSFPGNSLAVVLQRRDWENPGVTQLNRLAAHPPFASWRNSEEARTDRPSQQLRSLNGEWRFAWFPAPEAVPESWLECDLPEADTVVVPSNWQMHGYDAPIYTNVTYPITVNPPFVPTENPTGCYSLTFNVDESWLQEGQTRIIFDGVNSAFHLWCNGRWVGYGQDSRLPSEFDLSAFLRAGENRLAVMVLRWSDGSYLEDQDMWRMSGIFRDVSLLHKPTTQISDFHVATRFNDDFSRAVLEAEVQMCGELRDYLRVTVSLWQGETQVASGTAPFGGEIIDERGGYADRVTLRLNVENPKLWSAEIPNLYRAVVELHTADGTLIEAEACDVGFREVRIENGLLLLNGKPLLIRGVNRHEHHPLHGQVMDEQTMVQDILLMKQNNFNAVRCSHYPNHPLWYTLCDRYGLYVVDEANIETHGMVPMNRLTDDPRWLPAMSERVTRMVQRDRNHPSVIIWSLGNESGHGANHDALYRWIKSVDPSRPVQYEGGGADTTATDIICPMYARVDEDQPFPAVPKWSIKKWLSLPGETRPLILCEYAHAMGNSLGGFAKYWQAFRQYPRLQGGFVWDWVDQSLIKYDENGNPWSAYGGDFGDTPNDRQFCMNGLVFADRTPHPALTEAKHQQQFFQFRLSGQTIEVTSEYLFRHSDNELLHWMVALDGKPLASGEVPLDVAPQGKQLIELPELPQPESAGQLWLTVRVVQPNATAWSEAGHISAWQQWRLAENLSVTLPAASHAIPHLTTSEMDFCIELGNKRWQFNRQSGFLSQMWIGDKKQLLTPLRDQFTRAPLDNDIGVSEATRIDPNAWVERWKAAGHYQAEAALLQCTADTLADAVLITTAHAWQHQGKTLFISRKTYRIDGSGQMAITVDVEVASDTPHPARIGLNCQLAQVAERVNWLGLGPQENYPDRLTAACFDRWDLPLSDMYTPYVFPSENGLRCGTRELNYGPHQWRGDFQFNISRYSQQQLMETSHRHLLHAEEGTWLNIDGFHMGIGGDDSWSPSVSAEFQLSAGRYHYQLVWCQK
# [28] = molecular target: T7, Ubiquitin-conjugating enzyme E2 N; format: functional; remark: listed apart in the source
# [29] = system: BJ; assay: growth inhibition of engineered Ras-driven BJ cells – cell-based, alamar blue fluorescence, cherrypicked samples, dose response (AID 2631); format: functional; conditions: Homo sapiens;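 also: confirmatory dose-response assay in RAS-dependent BJ fibroblasts engineered with TERT, LT and ST, with cytotoxicity read by fluorescence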
# [30] = molecular target: T8, DNA repair protein RAD52 homolog (Homo sapiens, UniProt P43351); format: functional, biochemical
# T8 sequence (P43351 whole entry): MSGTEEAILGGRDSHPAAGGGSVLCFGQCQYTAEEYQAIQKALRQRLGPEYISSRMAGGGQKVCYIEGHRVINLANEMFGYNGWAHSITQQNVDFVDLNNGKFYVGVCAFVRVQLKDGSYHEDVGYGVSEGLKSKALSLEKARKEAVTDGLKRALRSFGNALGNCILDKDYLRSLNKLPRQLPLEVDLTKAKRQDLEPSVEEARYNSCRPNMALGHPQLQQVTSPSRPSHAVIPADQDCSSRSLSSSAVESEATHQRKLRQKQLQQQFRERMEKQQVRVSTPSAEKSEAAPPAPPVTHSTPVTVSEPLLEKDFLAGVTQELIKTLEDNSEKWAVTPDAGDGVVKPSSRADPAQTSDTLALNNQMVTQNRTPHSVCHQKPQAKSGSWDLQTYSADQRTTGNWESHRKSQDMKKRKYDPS
# [31] = molecular target: Paired box protein Pax-8 (Homo sapiens, UniProt Q06710); assay: PAX8 transcriptional activity inhibition in RMG-I – RMG-I cells, luciferase, cherry-pick, dose response (AID 687027); format: functional, cell-based;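 also: luciferase reporter driven by Pax8 target thyroperoxidase promoter measured by SteadyGlo luminescence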
# Sequence of Paired box protein Pax-8 (Q06710 whole entry): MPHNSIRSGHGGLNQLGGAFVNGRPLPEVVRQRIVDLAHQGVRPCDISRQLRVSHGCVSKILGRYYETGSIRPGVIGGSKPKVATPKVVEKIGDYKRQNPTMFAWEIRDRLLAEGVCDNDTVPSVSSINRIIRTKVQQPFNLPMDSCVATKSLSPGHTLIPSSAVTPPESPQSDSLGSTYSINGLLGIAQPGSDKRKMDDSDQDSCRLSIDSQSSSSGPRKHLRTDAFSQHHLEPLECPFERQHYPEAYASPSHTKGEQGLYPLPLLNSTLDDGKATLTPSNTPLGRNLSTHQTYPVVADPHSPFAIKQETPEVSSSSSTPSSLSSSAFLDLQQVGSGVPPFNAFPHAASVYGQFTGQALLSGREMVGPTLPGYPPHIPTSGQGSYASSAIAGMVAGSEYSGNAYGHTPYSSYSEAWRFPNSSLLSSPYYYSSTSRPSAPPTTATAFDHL
# [32] = general cell-killing toxicity readout – plate reader, dry powder samples, cytotoxicity control for PAX8 inhibitor project, dose response (AID 743021); format: functional, cell-based
# T1 sequence (P25098 whole entry): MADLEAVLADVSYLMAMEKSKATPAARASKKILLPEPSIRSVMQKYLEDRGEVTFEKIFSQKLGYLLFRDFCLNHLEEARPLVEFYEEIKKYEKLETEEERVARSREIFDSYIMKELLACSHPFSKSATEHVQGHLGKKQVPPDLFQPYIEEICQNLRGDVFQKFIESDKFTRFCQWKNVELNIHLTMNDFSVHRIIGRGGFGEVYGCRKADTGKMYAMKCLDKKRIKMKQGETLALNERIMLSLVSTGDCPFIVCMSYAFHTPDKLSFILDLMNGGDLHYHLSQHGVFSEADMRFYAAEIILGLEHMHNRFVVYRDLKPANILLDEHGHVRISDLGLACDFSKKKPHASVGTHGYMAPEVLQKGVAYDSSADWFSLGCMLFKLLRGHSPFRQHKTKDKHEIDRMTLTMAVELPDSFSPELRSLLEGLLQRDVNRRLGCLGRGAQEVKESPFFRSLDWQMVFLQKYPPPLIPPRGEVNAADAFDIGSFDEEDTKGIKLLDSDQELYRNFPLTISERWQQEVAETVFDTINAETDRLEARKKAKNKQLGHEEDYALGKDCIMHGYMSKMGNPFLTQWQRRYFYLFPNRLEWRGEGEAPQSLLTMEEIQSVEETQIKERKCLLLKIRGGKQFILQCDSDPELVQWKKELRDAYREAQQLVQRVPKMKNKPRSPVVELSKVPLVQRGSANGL
compound,measurement,setting,value
COc1ccc([N+](=O)[O-])cc1NC(=O)CCS(=O)(=O)c1ccc(Br)cc1,EC50,[1],15 µM (inactive)
same,EC50,[2],12.2 µM (active)
same,EC50,[3],1.45 µM (active)
same,IC50,[4],4.79 µM (active)
same,AC50,[5],4.1 µM (active)
same,AC50,[6],3.61 µM (active)
same,AC50,[7],> 70 µM (inactive)
Cn1nc(-c2ccc(C(=O)Nc3cccc(Cl)c3)cc2)c2ccccc2c1=O,IC50,[8],1.78 µM (active)
same,IC50,[9],3.95 µM (active)
same,EC50,[10],57.9 µM (inactive)
same,EC50,[11],14.8 µM (active)
CCc1cc2c(N3CCN(c4ccccc4)CC3)ncnc2s1,AC50,[12],26.7 µM (active)
same,AC50,[13],6.18 µM (active)
same,AC50,[14],34 µM (active)
same,AC50,[15],11.3 µM (active)
same,AC50,[16],26.2 µM (active)
CCCCCNC(=N)N/N=C/c1c[nH]c2ccc(OC)cc12 [TEGASEROD MALEATE],EC50,[17],> 60 µM (not active)
same,EC50,[18],5.21 µM (inconclusive)
same,EC50,[19],> 120 µM (not active)
same,EC50,[20],7.96 µM (active)
same,EC50,[21],7.15 µM (active)
same,EC50,[22],3.94 µM (active)
same,EC50,[23],5.36 µM (inconclusive)
same,IC50,[24],23.4 µM (inactive)
same,IC50,[25],> 20 µM (inactive)
same,IC50,[26],12.5 µM (active)
same,IC50,[27],> 66.6 µM (inactive)
same,IC50,[28],8.2 µM (active)
same,EC50,[29],3.92 µM (inconclusive)
same,AC50,[30],16.7 µM (active)
same,AC50,[31],12.4 µM (active)
same,AC50,[32],23.2 µM (active)
